Experimental data reported in paper PMC12057359, “Inhibitory effect of copper chelators on the budding in Candida albicans” (Antimicrobial Agents and Chemotherapy, 2025).
Like-named read-outs stand apart in the source and are kept apart here. Numbered stars: 1 amine (or outer) side, 2 acyl side, 3 side chain; on linkers, the order of the positions; unused ones are H or OH. Bridge positions count the residues as written; N and C are the ends. Square brackets hold non-standard residues; d marks the D form. Peptide text beside a SMILES is read from it. * marks the point of attachment. hTyr(3S-OH,4S-OH,3'-OSO3H) = N[C@H](C(=O)O)[C@H](O)[C@@H](O)c1ccc(O)c(OS(=O)(=O)O)c1; Orn(4R-OH,5R-OH) = O=C([C@H](C[C@@H](O)[C@@H](O)N[*:3])N[*:1])[*:2]; Pro(3S-OH,4S-Me) = C[C@H]1CN[C@H](C(=O)O)[C@H]1O; X1 = CCCCCOc1ccc(-c2cc(-c3ccc(C(=O)*)cc3)no2)cc1; Gln(3R-OH) = NC(=O)C[C@@H](O)[C@H](N)C(=O)O; Hyp = O=C(O)[C@@H]1C[C@@H](O)CN1

Assays:
[1] = tested on: C. albicans JCM1542; experiment: iHOPE antimicrobial microdilution assay (turbidity OD600); format: cell-based, Candida albicans
[2] = iHOPE in vitro cytotoxicity assessment (Cell Count Reagent SF); format: cell-based, human; details: human
Description: (§1) The method for in vitro cytotoxicity assessment using Cell Count Reagent SF (Nacalai Tesque) has been described previously ([15]). […] Test compounds were added to the culture medium, and then the plates were incubated at 28°C for 24 h.

[3] = tested on: C. glabrata JCM3761; experiment: iHOPE antimicrobial microdilution assay (turbidity OD600); format: cell-based, Candida glabrata; details: Nakaseomyces glabratus, read-out: IC50 against C. glabrata JCM3761
[4] = tested on: C. tropicalis JCM1541; experiment: as above; format: cell-based; details: Candida tropicalis, read-out: IC50 against C. tropicalis JCM1541
[5] = tested on: C. auris Ci6684; experiment: as above; format: cell-based, Candida auris; details: Candidozyma auris, read-out: IC50 against C. auris Ci6684
[6] = tested on: C. auris VPCI673; experiment: as above; format: cell-based, Candida auris; details: Candidozyma auris, read-out: IC50 against C. auris VPCI673
[7] = tested on: A. fumigatus Af293; experiment: iHOPE antimicrobial microdilution assay; format: cell-based, Aspergillus fumigatus
[8] = tested on: P. oryzae Kita-1; experiment: microbe, parasite or virus in culture; format: cell-based, Pyricularia oryzae
[9] = tested on: S. aureus 209P; experiment: iHOPE antimicrobial microdilution assay; format: cell-based, Staphylococcus aureus; details: read-out: IC50 against S. aureus 209P
[10] = tested on: E. coli HO-141; experiment: iHOPE antimicrobial microdilution assay; format: cell-based, Escherichia coli
[11] = tested on: C. albicans JCM1542; format: cell-based, Candida albicans
[12] = tested on: HL-60 RCB0041; experiment: iHOPE in vitro cytotoxicity assessment (Cell Count Reagent SF); format: cell-based, human
Description: as §1

[13] = Candida albicans, JCM1542, 24 h, read-out: IC50 against C. albicans JCM1542
[14] = Candida albicans, JCM1542; MOPS-RPMI medium, 28°C, 24 h, OD600; standard deviation in parentheses, n = 3; read-out: IC50 against C. albicans JCM1542
[15] = SD in parentheses, n = 3, read-out: IC50 against HL-60 RCB0041 (cytotoxicity)
[16] = JCM3761, MOPS-RPMI medium, 24 h, SD in parentheses, n = 3
[17] = JCM1541, MOPS-RPMI medium, 24 h, SD in parentheses, n = 3
[18] = CI6684, MOPS-RPMI medium, 24 h, SD in parentheses, n = 3
[19] = VPCI673, MOPS-RPMI medium, 24 h, SD in parentheses, n = 3
[20] = MOPS-RPMI medium, 28°C, 24 h, OD600; standard deviation in parentheses, n = 3; read-out: IC50 against C. albicans JCM1542
[21] = Aspergillus fumigatus, AF293, SD in parentheses, n = 3, read-out: IC50 against A. fumigatus Af293
[22] = Pyricularia oryzae, KITA1, read-out: IC50 against P. oryzae Kita-1
[23] = Staphylococcus aureus, 209P, SD in parentheses, n = 3
[24] = Escherichia coli, HO141, SD in parentheses, n = 3, read-out: IC50 against E. coli HO-141
[25] = C. albicans JCM1542, MOPS-RPMI medium, 24 h

`CCCCCC[C@H]1C(=O)O[C@H](C)[C@H](NC(=O)c2cccc(NC=O)c2O)C(=O)O[C@@H](C)[C@@H]1OC(=O)CC(C)C` [Antimycin A, antimycin A] showed an IC50 [1, 13] of 0.035 µM.

For `[C-]#[N+][C@H](C)CC(=O)NCc1ccc(N)cc1` [8a], the “antifungal activity / inhibition of budding against C. albicans (in words)” value (from here on “antifungal activity / inhibition”) ([1]; C. albicans JCM1542) was “weak antifungal activity and inhibition of budding”, the IC50 [1, 14] was 0.77 µM and the IC50 [2, 15] was > 30 µM.

For `[C-]#[N+][C@@H](C)CC(=O)Nc1ccc(NC(=O)C[C@H](C)[N+]#[C-])cc1` [13b], the IC50 [1, 14] was 0.034 µM and the IC50 [2, 15] was > 30 µM.

`[C-]#[N+][C@@H](C)CC(=O)N[C@H]1CC[C@@H](NC(=O)C[C@H](C)[N+]#[C-])CC1` [15b] showed an IC50 [1, 14] of 0.019 µM, an IC50 [3, 16] of 0.01 µM and an IC50 [4, 17] of 0.026 µM. The IC50 [5, 18] was 0.062 µM, the IC50 [6, 19] was 0.034 µM and the IC50 [2, 15] was > 30 µM.

With `C/C=C/C(=O)NCc1ccc(N)cc1` [compound 9] the “antifungal activity / inhibition” value ([1]; C. albicans JCM1542) was “did not mediate any changes in either the survival rate or morphology”, the IC50 [1, 14] was > 30 µM and the IC50 [2, 15] was > 30 µM.

In the case of `OO` [H2O2], the IC50 [1, 20] is reported as 550 µM.

In the case of `CC(C)(S)[C@@H](N)C(=O)O` [D-Penicillamine, D-penicillamine], the IC50 [3, 16] is reported as 270 µM, the IC50 [4, 17] is reported as > 1000 µM and the IC50 [5, 18] is reported as > 1000 µM. The IC50 [6, 19] was > 1000 µM, the IC50 [7, 21] was > 1000 µM and the IC50 [8, 22] was > 1000 µM. The IC50 [9, 23] was > 1000 µM, the IC50 [10, 24] was > 1000 µM and the IC50 [2] was > 1000 µM. The “morphological change induced in C. albicans” value (“morphological change induced” for short) [11, 25] was “morphological changes similar to those observed with SF2768”.

In the case of `[Cl][Cu][Cl]` [Cu^2+, copper chloride (II)], the IC50 [1, 20] is reported as > 30 µM, the IC50 ([7]; SD in parentheses, n = 3, read-out: IC50 against A. fumigatus Af293) is reported as > 30 µM and the IC50 ([8]; SD in parentheses, n = 3, read-out: IC50 against P. oryzae Kita-1) is reported as > 30 µM. The IC50 ([9]; SD in parentheses, n = 3) was > 30 µM, the IC50 ([10]; SD in parentheses, n = 3, read-out: IC50 against E. coli HO-141) was > 30 µM and the IC50 [12] was > 30 µM. For the same molecule, the “concentration leading to earlier budding of C. albicans” value [11] was ≥ 1 µM.

With `CCCC(=O)NCc1ccc(NC(=O)CCC)cc1` [compound 11] the “antifungal activity / inhibition” value ([1]; C. albicans JCM1542) was “did not mediate any changes in either the survival rate or morphology”, the IC50 [1, 14] was > 30 µM and the IC50 [2, 15] was > 30 µM.

Molecule oligomycin A has an IC50 ([1]; read-out: IC50 against C. albicans JCM1542; MOPS-RPMI medium, 28°C, 24 h, OD600; standard deviation in parentheses, n = 3) of 3.1 µM.

`C[C@@H]1[C@H](O)[C@@H](C)/C=C/C=C/C=C/C=C/C=C/C=C/C=C/[C@H](O[C@@H]2O[C@H](C)[C@@H](O)[C@H](N)[C@@H]2O)C[C@@H]2O[C@](O)(C[C@@H](O)C[C@@H](O)[C@H](O)CC[C@@H](O)C[C@@H](O)CC(=O)O[C@H]1C)C[C@H](O)[C@H]2C(=O)O` [Amphotericin B, amphotericin B] showed an IC50 [1, 14] of 0.039 µM, an IC50 [3, 16] of 0.063 µM and an IC50 [4, 17] of 0.046 µM. The IC50 [5, 18] was 0.41 µM, the IC50 [6, 19] was 0.44 µM and the IC50 [7, 21] was 0.21 µM. The IC50 [8, 22] was 0.16 µM, the IC50 [9, 23] was > 30 µM and the IC50 [10, 24] was > 30 µM. For the same molecule, the IC50 [2] was 17 µM and the “morphological change induced” value [11] was “yeast-rich morphology”.

In the case of `COc1cc(-c2ccccn2)nc(/C=N/O)c1SC` [collismycin], the “morphological change induced” value [11, 25] is reported as “elongated, but not as long as SF2768, and tortuous hyphae”.

`C/C=C(\C)[C@H](O)[C@H](C)/C=C(C)/C=C/C/C(C)=C/Cc1nc(OC)c(OC)c(O)c1C` [Piericidin A, piericidin A] showed an IC50 [1, 13] of 12 µM.

For `[C-]#[N+][C@H](C)CC(=O)N[C@H]1CC[C@H](NC(=O)C[C@@H](C)[N+]#[C-])CC1` [16a], the IC50 [1, 14] was 0.61 µM and the IC50 [2, 15] was > 30 µM.

`CCCCCOc1ccc(-c2cc(-c3ccc(C(=O)N[C@H]4C[C@@H](O)[C@@H](O)NC(=O)[C@@H]5[C@@H](O)[C@@H](C)CN5C(=O)[C@H]([C@H](O)CC(N)=O)NC(=O)[C@H]([C@H](O)[C@@H](O)c5ccc(O)c(OS(=O)(=O)O)c5)NC(=O)[C@@H]5C[C@@H](O)CN5C(=O)[C@H]([C@@H](C)O)NC4=O)cc3)no2)cc1` [Micafungin, micafungin] (X1-[Orn(4R-OH,5R-OH)]T[Hyp][hTyr(3S-OH,4S-OH,3'-OSO3H)][Gln(3R-OH)][Pro(3S-OH,4S-Me)]; lactam 1-C) showed an IC50 [1, 13] of 0.0033 µM, an IC50 ([3]; JCM3761, 24 h) of 0.0049 µM and an IC50 ([4]; JCM1541, 24 h) of 0.0054 µM. It also gave an IC50 ([5]; CI6684, 24 h) of 0.029 µM, an IC50 ([6]; VPCI673, 24 h) of 0.027 µM and an IC50 ([7]; Aspergillus fumigatus, AF293, read-out: IC50 against A. fumigatus Af293) of 0.004 µM. The IC50 [8, 22] was > 30 µM, the IC50 ([9]; Staphylococcus aureus, 209P) was > 30 µM and the IC50 ([10]; Escherichia coli, HO141, read-out: IC50 against E. coli HO-141) was > 30 µM. The IC50 [2, 15] was > 30 µM and the “morphological change induced” value [11, 25] was “yeast-rich morphology”.
